# Assay results reported in patent US9157909B2, “Male reproductive health panel and uses thereof” (priority 2007, dated 2015).
# Read-outs that look alike come from different tables or passages of the source.
# How the values were obtained:
# human sperm [1] = tested on: human sperm
# Description: (§1) In vitro oxidative stress exposure; human sperm from a fertile […] were exposed to increasing hydrogen peroxide (H2O2) concentrations (0, 10, 50 and 100 μM), and incubated at 37° C., for 15 min and 1 hr.
# (§2) Sperm was isolated from the seminal plasma as previously described in Brown et al. 1995. The sperm pellet was resuspended in phosphate buffered saline (PBS), pH=7.4, and divided into 4 aliquots. Each aliquot (equal sperm concentrations) was incubated at 37° C. in PBS with H2O2 concentrations of 0, 10, 50, and 100 μM for 15 min and 1 hr. All aliquots were divided into 2 portions. One portion was used to determine LPO.
# (§3) The remaining portion was centrifuged at 1500 g for 15 min at room temperature. The pellet was analyzed in the HSAA.
# Sperm chromatin decondensation and nuclear recondensation were evaluated in sperm exposed to increasing concentrations of H2O2 for 15 min and 1 hr using the HSAA. Sperm were analyzed at different incubation times in the egg extract using the image analysis Methamorph software system. The sperm nuclear activation was scored in 5 categories: 1) full decondensation: sperm diameter 25-30 μm, 2) partial decondensation: sperm diameter<25 μm, 3) non-decondensed, 4) hyperdecondensed: sperm diameter>(25-30 μm), and full recondensation.
# sperm [2] = details: comet assay, direct exposure of sperm; cited from earlier work
# human sperm [3] = details: 50 and 100 μM H2O2 (15 min); 10, 50 and 100 μM H2O2 (1 hr)
# Description: as §2
# human sperm [4] = details: for sperm heavily labeled by ^3H-TTP incorporation: incubation not printed (15 min implied)
# Description: FIG. 3: HSAA—The effect of oxidative stress on DNA synthesis. Pictorial representation of autoradiographs of control untreated sperm (A-E) and sperm exposed to 100 μM H2O2 for 1 hr (a-e) assayed in the HSAA in the presence of ^3H-TTP. All the pictures were photographed using bright microscopy 60× objective. […] All pictures were printed at the same magnification.
# as §1, §2, §3
# human sperm [5] = test: HSAA of sperm exposed to ROS from PMA-activated PMNL with or without Trolox; type: cell-based
# Description: PMNLs were isolated from blood of healthy donors by density gradient centrifugation. Activation and the number of peroxidase-positive leukocytes were determined using the Endtz test. Sperm from fertile males were isolated using percoll gradients (40 and 80%). Sperm from the 80% fraction was divided into 6 aliquots: 1) control non-treated sperm, 2) sperm treated with ROS inducer phorbol-12 myristate-13 acetate (PMA), 3) non-treated sperm with non-treated PMNL, 4) sperm with PMA treated PMNL, 5) sperm with PMA treated PMNL plus Trolox 40 μM, and 6) non-treated sperm plus Trolox 40 μM. Following an incubation period, sperm were evaluated for (A) sperm activation events in the HSAA, evaluating sperm activation events (decondensation, DNA synthesis, and recondensation) at 15 min, and 2 hr, and (B) determining ROS levels via nitroblue of tetrazolium (NBT) and spectrophotometry.
# sperm [6] = details: sperm exposed to hydroxylamine, analyzed in the HSAA; cited from earlier work
# [7] = Trolox 40 μM with PMA treated PMNL (oxidative stress)
smiles,measurement,setting,value
"OO [H2O2, hydrogen peroxide]",hyper-decondensed sperm,"human sperm [1]; 10 μM H2O2, 2 and 3 hr incubation in egg extract (results combined)",No sperm were hyper-decondensed
same,"recondensation appearance (FIG. 3d, e)","human sperm [1]; 100 μM H2O2, 1 hr exposure, 2 and 3 hr incubation in egg extract",irregular recondensation
same,recondensed sperm,"human sperm [1]; 10 and 50 μM H2O2, 15 min exposure, 15 min incubation in egg extract",No recondensed sperm were observed
same,non-decondensed sperm,"human sperm [1]; other concentrations (50 and 100 μM H2O2), any exposure time point, 15 min incubation in egg extract",no sperm were non-decondensed
same,H2O2 concentration at which induction of DNA fragmentation was significant,sperm [2],200 µM
same,"LPO (amount of MDA and hydroxyalkenals), means compared to untreated control sperm",human sperm [3],significantly different
same,^3H-TTP incorporation (autoradiography),"human sperm [4]; 10 μM H2O2, 15 min and 1 hr exposure, 2 and 3 hr incubations in egg extract",normal ^3H-TTP incorporation
same,^3H-TTP incorporation (autoradiography),"human sperm [4]; 10 μM H2O2, 15 min and 1 hr exposure, 5 and 15 min incubations in egg extract",no incorporation of ^3H-TTP
same,heavily labeled sperm (^3H-TTP),"human sperm [4]; 10 μM H2O2, 15 min and 1 hr exposures, 3 hr incubation in egg extract",98±2%
same,sperm positive for ^3H-TTP incorporation,"human sperm [4]; 10 μM H2O2, 15 min and 1 hr exposures, incubation time not printed (15 min in egg extract implied)",No sperm were positive
same,sperm positive for ^3H-TTP incorporation,"human sperm [4]; 10 μM H2O2, 5 min incubation in egg extract per heading (sentence prints 15 min extract incubation)",No sperm were positive
same,sperm heavily labeled by ^3H-TTP incorporation,"human sperm [4]; 50 μM H2O2, 15 min exposure",10±2%
same,sperm heavily labeled by ^3H-TTP incorporation,"human sperm [4]; 100 μM H2O2, 15 min exposure",50±5%
same,"onset of DNA synthesis (autoradiograph, FIG. 3b)","human sperm [4]; 100 μM H2O2, 1 hr exposure, 5 min incubation in egg extract",early initiation of DNA synthesis
same,"onset of DNA synthesis (autoradiograph, FIG. 3c)","human sperm [4]; 100 μM H2O2, 1 hr exposure, 15 min incubation in egg extract",early initiation of DNA synthesis
same,sperm heavily labeled by ^3H-TTP incorporation,"human sperm [4]; 100 μM H2O2, 1 hr exposure",45±9%
same,^3H-TTP incorporation (autoradiography),"human sperm [4]; 50 and 100 μM H2O2, 15 min and 1 hr exposure",abnormal ^3H-TTP incorporation
"Cc1c(C)c2c(c(C)c1O)CCC(C)(C(=O)O)O2 (stereo not shown) [Trolox, 6-Hydroxy-2,5,7,8-tetramethylchroman-. 2-carboxylic acid]",decondensation response,human sperm [5]; [7],improved responses in decondensation
same,early ^3H-TTP incorporation,human sperm [5]; [7],no early ^3H-TTP incorporation
same,sperm having recondensed chromatin,"human sperm [5]; Trolox 40 μM with PMA treated PMNL, 2 hr time point, only 57% without Trolox",78%
NO [hydroxylamine],onset of DNA synthesis,sperm [6],early initiation of DNA synthesis
same,sperm decondensation response,sperm [6],minimal decondensation
